In the supplement of paper PMC10307832:

Key:
Assay in all cases: relative viability (nuclei count vs DMSO), 5 days (fraction); higher = more cells survive
HOP-62 = test system: HOP-62
In short: (§1)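 Lung cancer cell lines were seeded in 1536-well plates and dosed by pin tool the next day, with either a single drug or a fixed anchor-drug dose combined with five library-drug doses (not always all listed) spaced in √10 steps. Five days later, one step fixed the cells and stained their nuclei (final 0.05% Triton X-100, 1% formaldehyde, 1 ug/ml Hoechst), and nuclei were counted on 4× images. Relative viability is the nuclei count in treated wells divided by the count in vehicle wells, and each value is the median of duplicate plates.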

NCI-H647 = test system: NCI-H647
In short: as §1

ABC-1 = test system: ABC-1
In short: as §1

HCC-827 = test system: HCC-827
In short: as §1

NCI-H596 = test system: NCI-H596
In short: as §1

NCI-H2170 = test system: NCI-H2170
In short: as §1

NCI-H1563 = test system: NCI-H1563
In short: as §1

BEN = test system: BEN
In short: as §1

NCI-H358 = test system: NCI-H358
In short: as §1

NCI-H322M = test system: NCI-H322M
In short: as §1

NCI-H1666 = test system: NCI-H1666
In short: as §1

NCI-H838 = test system: NCI-H838
In short: as §1

NCI-H520 = test system: NCI-H520
In short: as §1

PC-14 = test system: PC-14
In short: as §1

LU99A = test system: LU99A
In short: as §1

UMC-11 = test system: UMC-11
In short: as §1

NCI-H1792 = test system: NCI-H1792
In short: as §1

EPLC-272H = test system: EPLC-272H
In short: as §1

NCI-H727 = test system: NCI-H727
In short: as §1

NCI-H23 = test system: NCI-H23
In short: as §1

NCI-H1355 = test system: NCI-H1355
In short: as §1

NCI-H2405 = test system: NCI-H2405
In short: as §1

NCI-H1975 = test system: NCI-H1975
In short: as §1

NCI-H3122 = test system: NCI-H3122
In short: as §1

CCCCCCCCCCCC1=C(O)C(=O)C=C(O)C1=O [Embelin] + Cc1nc(NC(=O)N2CCC[C@H]2C(N)=O)sc1-c1ccnc(C(C)(C)C(F)(F)F)c1 [Alpelisib] (partner 2 µM)
relative viability (HOP-62; first compound 0.08 µM): 1.04 | relative viability (HOP-62; first compound 0.8 µM): 0.918 | relative viability (HOP-62; first compound 2.53 µM): 1.41 | relative viability (HOP-62; first compound 8 µM): 0.796 | relative viability (NCI-H647; first compound 0.08 µM): 1.29 | relative viability (NCI-H647; first compound 0.8 µM): 1.15 | relative viability (NCI-H647; first compound 2.53 µM): 1.45 | relative viability (NCI-H647; first compound 8 µM): 1.28 | relative viability (ABC-1; first compound 0.08 µM): 1.24 | relative viability (ABC-1; first compound 0.8 µM): 1.1 | relative viability (ABC-1; first compound 2.53 µM): 0.996 | relative viability (ABC-1; first compound 8 µM): 1.18 | relative viability (HCC-827; first compound 0.08 µM): 1.03 | relative viability (HCC-827; first compound 0.8 µM): 0.929 | relative viability (HCC-827; first compound 2.53 µM): 1.07 | relative viability (HCC-827; first compound 8 µM): 0.961 | relative viability (NCI-H596; first compound 0.08 µM): 0.487 | relative viability (NCI-H596; first compound 0.8 µM): 0.522 | relative viability (NCI-H596; first compound 2.53 µM): 0.482 | relative viability (NCI-H596; first compound 8 µM): 0.581 | relative viability (NCI-H2170; first compound 0.08 µM): 0.856 | relative viability (NCI-H2170; first compound 0.8 µM): 0.853 | relative viability (NCI-H2170; first compound 2.53 µM): 0.92 | relative viability (NCI-H2170; first compound 8 µM): 0.777 | relative viability (NCI-H1563; first compound 0.08 µM): 0.845 | relative viability (NCI-H1563; first compound 0.8 µM): 0.978 | relative viability (NCI-H1563; first compound 2.53 µM): 0.856 | relative viability (NCI-H1563; first compound 8 µM): 0.913 | relative viability (BEN; first compound 0.08 µM): 1.09 | relative viability (BEN; first compound 0.8 µM): 1.31 | relative viability (BEN; first compound 2.53 µM): 1.3 | relative viability (BEN; first compound 8 µM): 1.01 | relative viability (NCI-H358; first compound 0.08 µM): 0.852 | relative viability (NCI-H358; first compound 0.8 µM): 0.958 | relative viability (NCI-H358; first compound 2.53 µM): 1.09 | relative viability (NCI-H358; first compound 8 µM): 0.918 | relative viability (NCI-H322M; first compound 0.08 µM): 0.833 | relative viability (NCI-H322M; first compound 0.8 µM): 0.801 | relative viability (NCI-H322M; first compound 2.53 µM): 0.856 | relative viability (NCI-H322M; first compound 8 µM): 0.648 | relative viability (NCI-H1666; first compound 0.08 µM): 1.01 | relative viability (NCI-H1666; first compound 0.8 µM): 1.09 | relative viability (NCI-H1666; first compound 2.53 µM): 1.05 | relative viability (NCI-H1666; first compound 8 µM): 0.955 | relative viability (NCI-H838; first compound 0.08 µM): 1.01 | relative viability (NCI-H838; first compound 0.8 µM): 1 | relative viability (NCI-H838; first compound 2.53 µM): 1.12 | relative viability (NCI-H838; first compound 8 µM): 1.11 | relative viability (NCI-H520; first compound 0.08 µM): 1.05 | relative viability (NCI-H520; first compound 0.8 µM): 1.06 | relative viability (NCI-H520; first compound 2.53 µM): 0.896 | relative viability (NCI-H520; first compound 8 µM): 0.901 | relative viability (PC-14; first compound 0.08 µM): 0.9 | relative viability (PC-14; first compound 0.8 µM): 0.973 | relative viability (PC-14; first compound 2.53 µM): 0.976 | relative viability (PC-14; first compound 8 µM): 0.959 | relative viability (LU99A; first compound 0.08 µM): 0.558 | relative viability (LU99A; first compound 0.8 µM): 0.533 | relative viability (LU99A; first compound 2.53 µM): 0.561 | relative viability (LU99A; first compound 8 µM): 0.496 | relative viability (UMC-11; first compound 0.08 µM): 0.969 | relative viability (UMC-11; first compound 0.8 µM): 1.07 | relative viability (UMC-11; first compound 2.53 µM): 1.24 | relative viability (UMC-11; first compound 8 µM): 1.2 | relative viability (NCI-H1792; first compound 0.08 µM): 0.718 | relative viability (NCI-H1792; first compound 0.8 µM): 0.764 | relative viability (NCI-H1792; first compound 2.53 µM): 0.785 | relative viability (NCI-H1792; first compound 8 µM): 0.588 | relative viability (EPLC-272H; first compound 0.08 µM): 0.963 | relative viability (EPLC-272H; first compound 0.8 µM): 1.21 | relative viability (EPLC-272H; first compound 2.53 µM): 0.908 | relative viability (EPLC-272H; first compound 8 µM): 0.933 | relative viability (NCI-H727; first compound 0.08 µM): 0.629 | relative viability (NCI-H727; first compound 0.8 µM): 0.57 | relative viability (NCI-H727; first compound 2.53 µM): 0.578 | relative viability (NCI-H727; first compound 8 µM): 0.511 | relative viability (NCI-H23; first compound 0.08 µM): 0.606 | relative viability (NCI-H23; first compound 0.8 µM): 0.901 | relative viability (NCI-H23; first compound 2.53 µM): 0.844 | relative viability (NCI-H23; first compound 8 µM): 0.74 | relative viability (NCI-H1355; first compound 0.08 µM): 0.847 | relative viability (NCI-H1355; first compound 0.8 µM): 0.897 | relative viability (NCI-H1355; first compound 2.53 µM): 0.916 | relative viability (NCI-H1355; first compound 8 µM): 0.771 | relative viability (NCI-H2405; first compound 0.08 µM): 0.853 | relative viability (NCI-H2405; first compound 0.8 µM): 1.11 | relative viability (NCI-H2405; first compound 2.53 µM): 0.774 | relative viability (NCI-H2405; first compound 8 µM): 0.793 | relative viability (NCI-H1975; first compound 0.08 µM): 0.663 | relative viability (NCI-H1975; first compound 0.8 µM): 0.674 | relative viability (NCI-H1975; first compound 2.53 µM): 0.696 | relative viability (NCI-H1975; first compound 8 µM): 0.674 | relative viability (NCI-H3122; first compound 0.08 µM): 0.746 | relative viability (NCI-H3122; first compound 0.8 µM): 0.697 | relative viability (NCI-H3122; first compound 2.53 µM): 0.728 | relative viability (NCI-H3122; first compound 8 µM): 0.737
